Drawing on a melting point compilation (Tetko et al.; mined from patent text by program, amines drawn as free bases though some values may be those of a salt), this text covers melting point for 32 compounds.

Structures are written as SMILES.

Usually melting point stands for the temperature, or range, at which the solid turns liquid. `Cc1ccc([N+](=O)[O-])cc1CCl` returned a melting point of 56 to 62 °C. The compound `OC[C@H](O)[C@H](O)[C@@H](O)[C@@H](O)C=NNc1ccccc1` registered a melting point of 198 to 199 °C.

In turn, `COc1ccc(SCCSc2ccc(OC)cc2)cc1` displayed a melting point of 108 to 110 °C. `CN=C(ON1C(=O)CCC1=O)c1ccccc1`: the melting point was 119 to 120 °C. In the case of `O=C1NC(=O)C(c2cn(CCCO)c3ccccc23)=C1c1ccccc1[N+](=O)[O-]`, the melting point fell in the range of 193 to 195 °C. `CN(C=CC(=Nc1ccccc1)Oc1ccccc1)c1ccccc1` yielded a melting point of 130 to 132 °C. Next, `COc1ccc2c(c1)CCN(C#N)C2c1cc(OC)c(OC)c(OC)c1` (single isomer, unassigned; (-)): 132 to 134 °C; `CCCCC[C@H]1CC[C@H](C(=O)Oc2ccc(OC(F)F)cc2)CC1`: 54 °C; `O=C(Nc1ccc2[nH]c(=O)oc2c1)C(=O)N1CCC(Cc2ccc(O)cc2)CC1`: 235 to 239 °C. Take `O=C(Oc1ccc(Cl)cc1)c1cccc(Cl)c1`: the melting point came to 72 °C. Compound `CN(C)CCCCCCNC(=O)c1ccc(-c2cnc3c(c2)N(Cc2ccccc2)C(=O)CN3)cc1` registered a melting point of more than 200 °C. Next, `COc1cc(F)c(C(=O)CCCCCBr)cc1OC`: 81 to 83 °C; `CCCCc1nc2c(c(=O)[nH]1)CN(C(=O)C(C)(C)C)CC2`: 167 to 172 °C. As for `Cc1cc2c(cc1C(F)(F)F)N(Cc1ccc(C(=O)O)cc1)CCC[C@@H]2N(Cc1cc(C(F)(F)F)cc(C(F)(F)F)c1)c1nnn(C)n1`, the figure is 95 to 98 °C; as for `N#CCS(=O)(=O)C=C1N(CCCN2CCCCC2)CCN1CCCN1CCCCC1`, 105 to 107 °C. Compound `O=C(O)c1ccc(N2C3CCC2CN(CC(=O)N2CC=C(c4cccc5ccsc45)CC2)C3)nc1` returned a melting point of 121 to 122 °C.

In turn, `COC(=O)c1ccc(C#CC(=O)c2ccc3c(c2)C(C)(C)CCC3)cc1O` registered a melting point of 114 to 116 °C. `COc1cc(COc2ccc3nc(NC(=O)OCC(O)CO)cn3n2)cc(OC)c1OC` (configuration not stated) came in with a melting point of 175 to 176 °C. Regarding `O=C(Nc1cccc(S(=O)(=O)N2CCCC2)c1)c1cnn2c(C(F)(F)F)cc(-c3ccc(C(F)(F)F)cc3)nc12`, the melting point stood at 241 °C. As for `N#Cc1cccc(-c2nc(Nc3cnccn3)sc2-n2cncn2)c1`, the figure is more than 250 °C; as for `O=C(NC(=O)N1CCOCC1)c1cccc(-c2noc(-c3ccccc3F)n2)c1`, 190 to 194 °C; as for `O=c1[nH]c2sc3c(Cl)cccc3c2[nH]c1=O`, more than 300 °C. `COP(=O)(OC)c1ccc(-c2coc3ccc(-c4nnc(C)o4)cc23)cc1` registered a melting point of 168 to 169 °C. Turning to `CC(C)CCCC(C)C1CCC2C3CC=C4CC(NC(=O)CCNC(=O)CCCCCNc5ccc([N+](=O)[O-])cc5[N+](=O)[O-])CCC4(C)C3CCC12C` (configuration not stated), the melting point lay in the range of 197 to 198 °C. As for `COc1ccc(C=C2N=C(c3ccccc3I)OC2=O)cc1OC`, the figure is 200 to 202 °C; as for `Nc1ncc2cc(-c3c(Cl)cccc3Cl)c(=O)n(Cc3ccccc3)c2n1`, 220 to 222 °C. In turn, `CC(C)(C)NCC(O)COC(=O)c1ccc(OCc2ccccc2)c(OCc2ccccc2)c1` (configuration not stated) came in with a melting point of 85 to 86 °C. Next, `CC(C)(C)c1ccc(C(=O)n2c3c(c4ccccc42)CC(C(=O)O)CC3)cc1` (configuration not stated): 174 to 175 °C; `COc1ccc(C[C@@H]2COc3ccc(OCc4ccc5ccccc5n4)cc3[C@H]2O)cc1OC` (relative stereo): 175 °C.

`CN1C(=O)C(NC(=O)C23CC4CC(CC(C4)C2)C3)N=C(c2ccccc2)c2ccccc21` (racemic) showed a melting point of 256 to 257 °C. Regarding `Cc1cn(C[C@H]2CC[C@@H](CO)O2)c(=O)[nH]c1=O`, the melting point fell in the range of 133 to 135 °C. As for `COC(=O)c1c([N+](=O)[O-])c(OC)c2c(=O)[nH]c(C)nc2c1OC`, the melting point came out at 225 °C.
